Reference: patent publication US8946216B2, “Indazole derivatives useful as ERK inhibitors” (Merck Sharp & Dohme Corp., priority 2010, dated 2015)

Columns and labels:
[1] = molecular target: unphosphorylated Mouse ERK2 protein (inactive ERK2) (Mus musculus, UniProt P63085); assay: Coupled ERK2 (cERK) assay, coupled MEK1/ERK2 IMAP; assay type: biochemical; settings: 30 min preincubation with inactive ERK2, then activation by human MEK1; 30 μM ATP; fluorescence polarization; read-out: cERK2 IC50
Description: • 1. M. W. Pantoliana, E. C. Petrella, J. D. Kwasnoski, V. S. Lobanov, J. Myslik, E. Graf, T. Carver, E. Asel, B. A. Springer, P. Lane, F. R. Salemme, High-density miniaturized thermal shift assays as a general strategy for drug discovery, J. Biomol. Screen 6 (2001) 429-440 • 2. J. F. Brandts, L.-N. Lin, Study of strong to ultratight protein interactions using differential scanning calorimetry, Biochemistry 29 (1990) 6927-6940 • 3. Mayhood, T. W., Windsor, W. T., Ligand binding affinity determined by temperature-dependent circular dichroism: Cyclin-dependent kinase 2 inhibitors, Analytical Biochemistry 345 (2005) 187-197 Coupled ERK2 (cERK) Assay:
14 μl of kinase buffer (10 mM Tris.HCl pH 7.2, 10 mM MgCl2, 0.01% Tween-20, 1 mM DTT) containing 0.4 ng unphosphorylated Mouse ERK2 protein was added to each well of a black 384-well assay plate. […] DMSO concentration during initial incubation is 6.7%. ERK2 activity was determined to be insensitive to DMSO concentrations up to 20%. ERK2 was then activated and it's kinase activity measured by the addition of 10 μl kinase buffer with the following components (final concentration per reaction): 2 ng active (phosphorylated) human MEK1 protein and 4 μM (total) ERK2 IMAP substrate peptides (3.9 μM unlabeled IPTTPITTTYFFFK-CONH2 and 100 nM IPTTPITTTYFFFK(5-carboxyfluorescein)-CONH2) and 30 μM ATP. DMSO concentration during ERK activation was 4%. After one hour, reactions were terminated by addition of 60 μl IMAP detections beads in binding buffer (Molecular Devices). Binding was allowed to equilibrate for 30 minutes before reading the plate on an LJL Analyst Fluorescence Polarization plate reader. […] Active compounds were reconfirmed in an independent assay.

ERK protein = ERK protein (Homo sapiens, UniProt P28482); assay: TdF (Temperature Dependence Fluorescence, thermal shift) assay for ERK; assay type: binding; settings: read-out: TdF Kd; 3 μM ERK protein, 15, 50 or 100 μM compound, Sypro Orange; Kd calculated from ΔTm; uncertainty estimated ±50%
Description: Assays: TdF Assay for ERK
The SAR (Structure Activity Relationship) for ERK ligands covered by this invention was interrogated using the TdF (Temperature Dependence Fluorescence) assay or best known as thermal shift assay. The TdF assay was mainly conducted in the 96-well based CHROMO-4 real time fluorescence plate reader (BioRad). The Sypro Orange (Sigma-Aldrich), environmentally sensitive fluorescence dye, was used to monitor the protein folding-unfolding transition. Protein-ligand binding was gauged by the change (or shift) in the unfolding transition temperature (ΔTm) acquired at protein alone with respect to protein in the presence of ligand of interest.
Compound of interest was first prepared in DMSO stock (typical concentration: 10 mM). Sample of 20 μL was then added into the 96-well PCR plate, where it consisted of 3 μM. […] Final percentage of DMSO resided in the sample was 2%. The sample plate was heated from 30° C. to 90° C. with thermal ramping rate of 1 ° C./min. The fluorescence signals were acquired with excitation and emission wavelengths centered at 490 and 560 nm respectively. The instrument thermal stability was ±0.2° C. The melting temperatures (Tm) for ERK protein under aforementioned conditions occurred at 61.0±0.2° C. and 64.8±0.2° C. respectively.
Theoretical Basis for TdF-based Ligand Binding Affinity Constant
The derivation of TdF-based ligand binding affinity constant (Kd) followed closely those previously formulated by Brandts and Lin [2]. In brief, the binding constant of the ligand at the Tm is expressed as below: […]
where T0 is the midpoint of unfolding for unliganded protein and Tm is the midpoint of unfolding in presence of ligand. [LTm] is free ligand at Tm. The ΔHu and ΔCpu are the enthalpy of unfolding and heat capacity change of unfolding for the protein respectively. Following algorithm derived by Winsor and coworker, the T0, ΔHu and ΔCpu can be determined separately from nonlinear regression fitting the protein alone melting curve:
Where F(T) is the observed fluorescence intensity at any temperature T, Yn and Yu are the predicted fluorescence intensities for fully folded and unfolded protein, respectively; mn and mu are slope correction for changes in Yn and Yu with respect to changes in temperature (analogously replace T0 with Tm in the above equation for liganded protein to yield Tm).
where ΔHL(T) is the van't Hoff enthalpy of ligand binding at temperature T and ΔCpL is the heat capacity upon ligand binding. For simplicity, the ΔCpL and ΔHL(T) were set to zero and −7 kcal/mol respectively. The uncertainty in the calculated ligand binding affinity constant was estimated to be ±50%.

[2] = molecular target: fully phosphorylated, active Mouse ERK2 protein (Mus musculus, UniProt P63085); assay: Active ERK2 (aERK) assay, IMAP format; assay type: biochemical; settings: 30 min preincubation; 1 μM substrate peptide, 30 μM ATP; fluorescence polarization; read-out: aERK2 IC50
Experimental: Active ERK2 (aERK) Assay:
Activated ERK2 activity was also determined in the IMAP assay format using the procedure outlined above. 1 μl of 25× compound was added to 14 μl of kinase buffer containing 0.25 ng fully phosphorylated, active Mouse ERK2 protein. Following a 30 minute incubation, the reactions were initiated by addition of 10 μl of kinase buffer containing 1 μM ERK2 IMAP substrate peptide (0.9 μM unlabeled IPTTPITTTYFFFK--CONH2 and 100 nM IPTTPITTTYFFFK(5-carboxyfluorescein)-CONH2) and 30 μM ATP. Reactions proceeded for 30 minutes before termination by addition of 60 μl IMAP detection beads in binding buffer. Plates were read as above after 30 minute binding equilibration. Active compounds were reconfirmed in an independent assay.

ERK protein, sequence (P28482 2-360): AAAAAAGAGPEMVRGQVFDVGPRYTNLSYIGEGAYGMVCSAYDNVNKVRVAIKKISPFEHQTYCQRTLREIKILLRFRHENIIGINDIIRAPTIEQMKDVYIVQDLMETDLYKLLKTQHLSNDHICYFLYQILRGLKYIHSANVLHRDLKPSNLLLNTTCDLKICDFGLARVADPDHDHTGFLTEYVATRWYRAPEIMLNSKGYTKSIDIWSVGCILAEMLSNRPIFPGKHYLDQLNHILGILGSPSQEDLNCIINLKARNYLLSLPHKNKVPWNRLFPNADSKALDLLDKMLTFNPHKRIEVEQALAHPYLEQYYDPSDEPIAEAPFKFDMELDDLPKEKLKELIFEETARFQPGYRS
fully phosphorylated, active Mouse ERK2 protein, sequence (P63085 whole entry): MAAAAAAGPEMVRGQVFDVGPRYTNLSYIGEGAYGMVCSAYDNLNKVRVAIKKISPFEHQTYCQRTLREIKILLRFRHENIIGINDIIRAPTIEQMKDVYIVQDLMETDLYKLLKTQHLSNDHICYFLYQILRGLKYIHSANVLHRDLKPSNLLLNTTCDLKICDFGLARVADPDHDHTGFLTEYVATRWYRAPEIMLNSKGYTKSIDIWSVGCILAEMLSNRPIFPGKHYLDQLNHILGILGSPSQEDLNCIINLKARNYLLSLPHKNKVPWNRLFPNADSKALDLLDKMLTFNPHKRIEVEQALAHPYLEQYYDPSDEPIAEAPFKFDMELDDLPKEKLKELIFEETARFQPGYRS
unphosphorylated Mouse ERK2 protein (inactive ERK2), sequence (P63085 whole entry): as above

IC50 [1] [µM] | Kd (ERK protein) [µM] | IC50 [2] [µM] | Structure (SMILES)
0.532 | 0.24 | 1 | CC(C)Oc1ccc(-c2n[nH]c3ccc(NC(=O)C4CN(Cc5ccccc5)CCO4)cc23)cn1 (stereo not drawn) [Compound 1, N-[3-[6-(1-METHYLETHOXY)-3-PYRIDINYL]-1H-INDAZOL-5-YL]-4-(PHENYLMETHYL)-2-MORPHOLINECARBOXAMIDE]
1.84 | 0.546 | 0.583 | O=C(Nc1ccc2[nH]nc(-c3ccncc3)c2c1)C1CN(Cc2cscn2)CCO1 (stereo not drawn) [Compound 2, N-[3-(4-PYRIDINYL)-1H-INDAZOL-5-YL]-4-(4-THIAZOLYLMETHYL)-2-MORPHOLINECARBOXAMIDE]
0.0293 | 0.02 | 0.0207 | O=C(Nc1ccc2[nH]nc(-c3ccncc3)c2c1)C1CN(Cc2ccccc2F)CCO1 (stereo not drawn) [Compound 4, 4-[(2-FLUOROPHENYL)METHYL]-N-[3-(4-PYRIDINYL)-1H-INDAZOL-5-YL]-2-MORPHOLINECARBOXAMIDE]
0.0424 | 0.02 | 0.0542 | O=C(Nc1ccc2[nH]nc(-c3ccncc3)c2c1)C1CN(Cc2ccccc2Cl)CCS1 (stereo not drawn) [Compound 9, 4-[(2-CHLOROPHENYL)METHYL]-N-[3-(4-PYRIDINYL)-1H-INDAZOL-5-YL]-2-THIOMORPHOLINECARBOXAMIDE]
0.0364 | 0.015 | 0.0772 | O=C(Nc1ccc2[nH]nc(-c3ccncc3)c2c1)C1CN(Cc2ccccc2F)CCS1 (stereo not drawn) [Compound 10, 4-[(2-FLUOROPHENYL)METHYL]-N-[3-(4-PYRIDINYL)-1H-INDAZOL-5-YL]-2-THIOMORPHOLINECARBOXAMIDE]
0.84 | 0.616 | 0.475 | Cc1nc(CN2CCSC(C(=O)Nc3ccc4[nH]nc(-c5ccncc5)c4c3)C2)cs1 (stereo not drawn) [Compound 11, 4-[(2-METHYL-4-THIAZOLYL)METHYL]-N-[3-(4-PYRIDINYL)-1H-INDAZOL-5-YL]-2-THIOMORPHOLINECARBOXAMIDE]
2.14 | 13.5 | 0.852 | O=C(Nc1ccc2[nH]nc(-c3ccncc3)c2c1)C1CNCCO1 (stereo not drawn) [Compound 16, N-[3-(4-PYRIDINYL)-1H-INDAZOL-5-YL]-2-MORPHOLINECARBOXAMIDE]
0.109 | 5.63 | 0.124 | O=C(Nc1ccc2[nH]nc(-c3ccncc3)c2c1)C1CNCCS1 (stereo not drawn) [Compound 17, N-[3-(4-PYRIDINYL)-1H-INDAZOL-5-YL]-2-THIOMORPHOLINECARBOXAMIDE]
1.17 | 0.571 | 18.1 | Cc1nc(CN2CCOC(C(=O)Nc3ccc4[nH]nc(-c5ccncc5)c4c3)C2)cs1 (stereo not drawn) [Compound 18, 4-[(2-METHYL-4-THIAZOLYL)METHYL]-N-[3-(4-PYRIDINYL)-1H-INDAZOL-5-YL]-2-MORPHOLINECARBOXAMIDE]
0.151 | 0.141 | 0.123 | O=C(Nc1ccc2[nH]nc(-c3ccncc3)c2c1)C1CN(Cc2cccc(Cl)c2)CCO1 (stereo not drawn) [Compound 29, 4-[(3-CHLOROPHENYL)METHYL]-N-[3-(4-PYRIDINYL)-1H-INDAZOL-5-YL]-2-MORPHOLINECARBOXAMIDE]
0.508 | 0.423 | 0.957 | CSc1ccc(CN2CCOC(C(=O)Nc3ccc4[nH]nc(-c5ccncc5)c4c3)C2)cc1 (stereo not drawn) [Compound 34, 4-[[4-(METHYLTHIO)PHENYL]METHYL]-N-[3-(4-PYRIDINYL)-1H-INDAZOL-5-YL]-2-MORPHOLINECARBOXAMIDE]
0.0809 | 0.079 | 0.0379 | COc1ccccc1CN1CCOC(C(=O)Nc2ccc3[nH]nc(-c4ccncc4)c3c2)C1 (stereo not drawn) [Compound 35, 4-[(2-METHOXYPHENYL)METHYL]-N-[3-(4-PYRIDINYL)-1H-INDAZOL-5-YL]-2-MORPHOLINECARBOXAMIDE]
0.166 | 0.062 | 1.84 | O=C(Nc1ccc2[nH]nc(-c3ccncc3)c2c1)C1CN(Cc2ccccc2)CCS1 (stereo not drawn) [Compound 36, 4-(PHENYLMETHYL)-N-[3-(4-PYRIDINYL)-1H-INDAZOL-5-YL]-2-THIOMORPHOLINECARBOXAMIDE]
0.173 | 0.027 | 0.111 | O=C(Nc1ccc2[nH]nc(-c3ccncc3)c2c1)C1CN(Cc2c(F)cccc2Cl)CCO1 (stereo not drawn) [Compound 37, 4-[(2-CHLORO-6-FLUOROPHENYL)METHYL]-N-[3-(4-PYRIDINYL)-1H-INDAZOL-5-YL]-2-MORPHOLINECARBOXAMIDE]
0.218 | 0.214 | 0.139 | O=C(Nc1ccc2[nH]nc(-c3ccncc3)c2c1)C1CN(Cc2cccc(F)c2F)CCO1 (stereo not drawn) [Compound 43, 4-[(2,3-DIFLUOROPHENYL)METHYL]-N-[3-(4-PYRIDINYL)-1H-INDAZOL-5-YL]-2-MORPHOLINECARBOXAMIDE]
0.109 | 0.165 | 0.0692 | O=C(Nc1ccc2[nH]nc(-c3ccncc3)c2c1)C1CN(Cc2c(F)cccc2F)CCO1 (stereo not drawn) [Compound 44, 4-[(2,6-DIFLUOROPHENYL)METHYL]-N-[3-(4-PYRIDINYL)-1H-INDAZOL-5-YL]-2-MORPHOLINECARBOXAMIDE]
0.275 | 0.08 | 0.138 | O=C(Nc1ccc2[nH]nc(-c3ccncc3)c2c1)C1CN(Cc2ccc(F)cc2F)CCO1 (stereo not drawn) [Compound 45, 4-[(2,4-DIFLUOROPHENYL)METHYL]-N-[3-(4-PYRIDINYL)-1H-INDAZOL-5-YL]-2-MORPHOLINECARBOXAMIDE]
0.148 | 0.167 | 0.148 | COc1ccc(F)c(CN2CCOC(C(=O)Nc3ccc4[nH]nc(-c5ccncc5)c4c3)C2)c1 (stereo not drawn) [Compound 46, 4-[(2-FLUORO-5-METHOXYPHENYL)METHYL]-N-[3-(4-PYRIDINYL)-1H-INDAZOL-5-YL]-2-MORPHOLINECARBOXAMIDE]

Structure (SMILES) | IC50 [1] [µM] | Kd (ERK protein) [µM] | IC50 [2] [µM]
O=C(Nc1ccc2[nH]nc(-c3ccncc3)c2c1)C1CN(Cc2ccccn2)CCO1 (stereo not drawn) [Compound 5, N-[3-(4-PYRIDINYL)-1H-INDAZOL-5-YL]-4-(2-PYRIDINYLMETHYL)-2-MORPHOLINECARBOXAMIDE] | 2.44 | 0.647 | 1.07
O=C(Nc1ccc2[nH]nc(-c3ccncc3)c2c1)C1CN(Cc2cccnc2)CCO1 (stereo not drawn) [Compound 19, N-[3-(4-PYRIDINYL)-1H-INDAZOL-5-YL]-4-(3-PYRIDINYLMETHYL)-2-MORPHOLINECARBOXAMIDE] | 2.2 | 0.517 | 17
